pIC50: −log10 of the molar value. Where two headings read alike, the source gives them in different places.

Holding throughout (assay type): cell-based
The target in assay [1] is Met (phospho-Met, HGF-stimulated PC-3 prostate cancer cells) (Homo sapiens (Human), UniProt P08581). In words: Met autophosphorylation ELISA in PC-3 cells (Example F). To be noted: cellular activity, read-out: c-Met IC50. On the procedure: PC-3 prostate cancer cells (ATCC #CRL-1435) were seeded at 4×10^4 cells/well onto 24-well plates (Greiner #662165), in DMEM (Thermo Fisher #11995-040) containing 10% FBS (Thermo Fisher #26140-079), 1% MEM NEAA (Thermo Fisher #11140-050), 1% GlutaMax (Thermo Fisher #35050-061), and 1% Penicillin Streptomycin (Thermo Fisher #15140-122). PC-3 cells were incubated at 37° C., 5% CO2 for 24 h and then starved for 3 h in serum-free medium. Test compounds were serially diluted to produce an 8-point dose curve in fresh serum-free medium to a final concentration of 0.3% DMSO (vehicle) and added to the cells and incubated for 1 h. Cells were then stimulated with 100 ng/mL recombinant human HGF (R&D Systems #294-HG-250) for 10 min, washed with cold PBS, and immediately lysed with […] of cold 1× lysis buffer [20 mM Tris, 137 mM sodium chloride, 2 mM EDTA, 10% glycerol, 1% NP-40 alternative, 1 mM activated sodium orthovanadate, 1 mM PefaBloc SC (Sigma-Aldrich #11429868001), protease/phosphatase inhibitor tablet (Thermo Fisher #A32959)]. Lysates were clarified by centrifugation and 100 μL/well added into the PathScan phospho-Met (panTyr) Sandwich ELISA (Cell Signaling Technology #7333). Assay was performed according to manufacturer's instructions. Positive control wells (100% activity) contained HGF-stimulated, DMSO-treated cell lysates. Negative control wells (0% activity) contained HGF-stimulated, reference inhibitor-treated cell lysates. IC50 values were calculated by nonlinear regression analysis using a 4-parameter logistic curve fit in ActivityBase XE (IDBS).
In general terms: ELISA stands for enzyme-linked immunosorbent assay.

Assay [2] concerns the target KDR (phospho-KDR, VEGF165-stimulated HUVEC cells) (Homo sapiens (Human), UniProt P35968). In words: KDR autophosphorylation ELISA in HUVEC cells (Example G). To be noted: cellular activity. On the procedure: Human umbilical vein endothelial cells or HUVEC (Lonza #C2519A) were seeded at 2×10^4 cells/well onto 96-well plates (Corning #3904), in EGM-2 growth medium (Lonza #CC-3162) containing 1% Penicillin Streptomycin (Thermo Fisher #15140-122). HUVEC cells were incubated at 37° C., 5% CO2 for 24 h and then starved for 24 h in serum-free EBM-2 basal medium (Lonza #CC-3156) containing 1% Penicillin Streptomycin. Test compounds were serially diluted to produce an 8-point dose curve in fresh serum-free medium to a final concentration of 0.3% DMSO (vehicle) and added to the cells and incubated for 1 h. Cells were then stimulated with 100 ng/mL recombinant human VEGF165 (R&D Systems #293-VE-500) for 5 min, washed with cold PBS, and immediately lysed with […] of cold 1× lysis buffer [20 mM Tris, 137 mM sodium chloride, 2 mM EDTA, 10% glycerol, 1% NP-40 alternative, 1 mM activated sodium orthovanadate, 1 mM PefaBloc SC (Sigma-Aldrich #11429868001), protease/phosphatase inhibitor tablet (Thermo Fisher #A32959)]. Lysates were collected and 100 μL/well added into the human phospho-KDR DuoSet IC ELISA (R&D Systems #DYC1766-2). Assay was performed according to manufacturer's instructions and sample phospho-KDR concentrations were extrapolated using human phospho-KDR control (R&D Systems #841421) as a standard. Positive control wells (100% activity) contained VEGF165-stimulated, DMSO-treated cell lysates. Negative control wells (0% activity) contained non-stimulated cell lysates. IC50 values were calculated by nonlinear regression analysis using a 4-parameter logistic curve fit in ActivityBase XE (IDBS).

Assay [3] concerns the target Mer (phospho-Mer, MERTK-transfected 293A cells) (Homo sapiens (Human), UniProt Q12866). In words: Mer autophosphorylation ELISA in transient transfected 293A cells (Example H). To be noted: cellular activity. On the procedure:
293A cells (Thermo Fisher #R70507) were seeded at 1.5×10^6 cells/well onto 100 mm dish (Greiner #664169), in DMEM (Thermo Fisher #11995-040) containing 10% FBS (Thermo Fisher #26140-079), 1% MEM NEAA (Thermo Fisher #11140-050), 1% GlutaMax (Thermo Fisher #35050-061), and 1% Penicillin Streptomycin (Thermo Fisher #15140-122). 293A cells were incubated at 37° C., 5% CO2 for 24 h and then transfected with […] MERTK DNA (Genecopoeia #EX-Z8208-M02) using TransIT LT1 transfection reagent (Mirus-Bio #MIR2305). After 24 h incubation, the transfected 293A cells were seeded at 1×10^5 cells/well onto 96-well plates (Corning #3904) in DMEM growth medium overnight. Test compounds were serially diluted to produce an 8-point dose curve in fresh serum-free medium to a final concentration of 0.3% DMSO (vehicle) and added to the cells and incubated for 1 h. Cells were then immediately lysed with 150 μL of cold 1× lysis buffer [20 mM Tris, 137 mM sodium chloride, 2 mM EDTA, 10% glycerol, 1% NP-40 alternative, 1 mM activated sodium orthovanadate, 1 mM PefaBloc SC (Sigma-Aldrich #11429868001), protease/phosphatase inhibitor tablet (Thermo Fisher #A32959)]. Lysates were clarified by centrifugation and 50 µL/well added in to the human phospho-Mer DuoSet IC ELISA (R&D Systems #DYC2579-2). Assay was performed according to manufacturer's instructions and sample phospho-Mer concentrations were extrapolated using human phospho-Mer control (R&D Systems #841793) as a standard. Positive control wells (100% activity) contained DMSO-treated cell lysates. Negative control wells (0% activity) contained reference inhibitor-treated cell lysates. IC50 values were calculated by nonlinear regression analysis using a 4-parameter logistic curve fit in ActivityBase XE (JDBS).

Where [4] appears, read: Met autophosphorylation ELISA in PC-3 cells.
The mark [5] stands for this setting: KDR autophosphorylation ELISA in HUVEC cells.
The mark [6] stands for this setting: Mer autophosphorylation ELISA in transient transfected 293A cells.

Sequence of Met (phospho-Met, HGF-stimulated PC-3 prostate cancer cells) (P08581 25-1390): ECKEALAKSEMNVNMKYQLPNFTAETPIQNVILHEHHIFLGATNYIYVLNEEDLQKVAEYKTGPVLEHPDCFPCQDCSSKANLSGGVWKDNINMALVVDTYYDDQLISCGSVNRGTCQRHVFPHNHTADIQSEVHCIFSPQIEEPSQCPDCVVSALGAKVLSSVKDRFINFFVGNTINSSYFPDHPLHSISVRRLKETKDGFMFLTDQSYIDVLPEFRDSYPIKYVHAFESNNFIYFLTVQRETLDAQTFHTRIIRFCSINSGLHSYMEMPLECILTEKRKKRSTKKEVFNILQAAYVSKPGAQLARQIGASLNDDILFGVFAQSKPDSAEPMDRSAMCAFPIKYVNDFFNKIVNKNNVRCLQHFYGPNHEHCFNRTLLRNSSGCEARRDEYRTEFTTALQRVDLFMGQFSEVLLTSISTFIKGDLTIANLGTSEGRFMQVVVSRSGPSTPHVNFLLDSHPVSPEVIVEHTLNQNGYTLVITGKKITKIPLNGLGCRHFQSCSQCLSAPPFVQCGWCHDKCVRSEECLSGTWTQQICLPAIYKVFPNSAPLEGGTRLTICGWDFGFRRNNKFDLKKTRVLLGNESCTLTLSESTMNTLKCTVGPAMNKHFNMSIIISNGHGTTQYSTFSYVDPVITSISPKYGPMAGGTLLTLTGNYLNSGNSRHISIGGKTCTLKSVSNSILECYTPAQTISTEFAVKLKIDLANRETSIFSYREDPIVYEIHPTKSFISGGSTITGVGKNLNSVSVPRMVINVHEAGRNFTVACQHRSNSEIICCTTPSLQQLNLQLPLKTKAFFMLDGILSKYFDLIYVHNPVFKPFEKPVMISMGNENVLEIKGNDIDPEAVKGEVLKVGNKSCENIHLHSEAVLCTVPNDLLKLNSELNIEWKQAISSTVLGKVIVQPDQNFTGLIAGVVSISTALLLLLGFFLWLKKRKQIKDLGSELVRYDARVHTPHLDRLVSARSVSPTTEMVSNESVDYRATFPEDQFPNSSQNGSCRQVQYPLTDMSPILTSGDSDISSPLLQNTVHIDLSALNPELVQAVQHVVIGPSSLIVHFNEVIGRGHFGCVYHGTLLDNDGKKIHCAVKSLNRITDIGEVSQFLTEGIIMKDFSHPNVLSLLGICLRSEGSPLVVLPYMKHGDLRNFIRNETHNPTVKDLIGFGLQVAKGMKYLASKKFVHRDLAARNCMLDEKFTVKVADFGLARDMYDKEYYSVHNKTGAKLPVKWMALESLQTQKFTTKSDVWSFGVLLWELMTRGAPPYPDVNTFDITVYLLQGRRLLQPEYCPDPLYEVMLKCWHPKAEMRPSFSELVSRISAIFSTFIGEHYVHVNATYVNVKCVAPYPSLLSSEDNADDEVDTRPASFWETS
Sequence of KDR (phospho-KDR, VEGF165-stimulated HUVEC cells) (P35968 20-1356): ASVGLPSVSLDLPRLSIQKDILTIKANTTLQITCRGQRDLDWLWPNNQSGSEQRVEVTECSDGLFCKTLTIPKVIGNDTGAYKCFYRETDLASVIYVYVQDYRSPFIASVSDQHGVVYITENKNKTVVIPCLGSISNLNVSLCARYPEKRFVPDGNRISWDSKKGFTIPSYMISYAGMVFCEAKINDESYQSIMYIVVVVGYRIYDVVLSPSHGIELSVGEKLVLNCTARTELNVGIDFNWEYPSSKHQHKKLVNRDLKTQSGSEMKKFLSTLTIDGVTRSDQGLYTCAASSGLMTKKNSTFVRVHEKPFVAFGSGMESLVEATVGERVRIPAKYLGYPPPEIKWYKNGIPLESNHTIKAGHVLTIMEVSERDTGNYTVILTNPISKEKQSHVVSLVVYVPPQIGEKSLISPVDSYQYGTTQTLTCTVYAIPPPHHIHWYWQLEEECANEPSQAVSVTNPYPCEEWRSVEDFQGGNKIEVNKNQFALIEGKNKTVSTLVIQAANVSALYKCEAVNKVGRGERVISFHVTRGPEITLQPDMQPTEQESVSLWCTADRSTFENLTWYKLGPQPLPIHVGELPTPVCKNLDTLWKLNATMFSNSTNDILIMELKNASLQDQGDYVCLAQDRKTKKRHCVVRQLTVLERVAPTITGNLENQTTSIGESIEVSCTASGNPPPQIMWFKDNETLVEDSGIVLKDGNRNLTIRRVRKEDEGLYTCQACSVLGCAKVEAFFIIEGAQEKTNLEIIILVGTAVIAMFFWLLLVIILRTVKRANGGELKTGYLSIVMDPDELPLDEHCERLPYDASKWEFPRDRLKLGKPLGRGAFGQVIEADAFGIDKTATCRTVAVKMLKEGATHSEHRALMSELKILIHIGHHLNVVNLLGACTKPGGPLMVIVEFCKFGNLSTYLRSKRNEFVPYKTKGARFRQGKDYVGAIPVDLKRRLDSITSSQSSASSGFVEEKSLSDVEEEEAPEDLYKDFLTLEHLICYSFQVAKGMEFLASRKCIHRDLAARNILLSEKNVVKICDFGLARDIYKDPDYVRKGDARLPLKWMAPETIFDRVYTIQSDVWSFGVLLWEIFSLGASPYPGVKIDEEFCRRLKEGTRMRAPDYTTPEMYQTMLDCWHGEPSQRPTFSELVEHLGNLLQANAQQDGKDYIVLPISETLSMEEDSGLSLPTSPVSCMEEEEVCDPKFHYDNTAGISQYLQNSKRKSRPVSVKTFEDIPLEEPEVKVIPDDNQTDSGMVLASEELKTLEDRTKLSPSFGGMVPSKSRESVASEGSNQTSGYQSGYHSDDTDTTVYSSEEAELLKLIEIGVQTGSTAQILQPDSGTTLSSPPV
Sequence of Mer (phospho-Mer, MERTK-transfected 293A cells) (Q12866 21-999): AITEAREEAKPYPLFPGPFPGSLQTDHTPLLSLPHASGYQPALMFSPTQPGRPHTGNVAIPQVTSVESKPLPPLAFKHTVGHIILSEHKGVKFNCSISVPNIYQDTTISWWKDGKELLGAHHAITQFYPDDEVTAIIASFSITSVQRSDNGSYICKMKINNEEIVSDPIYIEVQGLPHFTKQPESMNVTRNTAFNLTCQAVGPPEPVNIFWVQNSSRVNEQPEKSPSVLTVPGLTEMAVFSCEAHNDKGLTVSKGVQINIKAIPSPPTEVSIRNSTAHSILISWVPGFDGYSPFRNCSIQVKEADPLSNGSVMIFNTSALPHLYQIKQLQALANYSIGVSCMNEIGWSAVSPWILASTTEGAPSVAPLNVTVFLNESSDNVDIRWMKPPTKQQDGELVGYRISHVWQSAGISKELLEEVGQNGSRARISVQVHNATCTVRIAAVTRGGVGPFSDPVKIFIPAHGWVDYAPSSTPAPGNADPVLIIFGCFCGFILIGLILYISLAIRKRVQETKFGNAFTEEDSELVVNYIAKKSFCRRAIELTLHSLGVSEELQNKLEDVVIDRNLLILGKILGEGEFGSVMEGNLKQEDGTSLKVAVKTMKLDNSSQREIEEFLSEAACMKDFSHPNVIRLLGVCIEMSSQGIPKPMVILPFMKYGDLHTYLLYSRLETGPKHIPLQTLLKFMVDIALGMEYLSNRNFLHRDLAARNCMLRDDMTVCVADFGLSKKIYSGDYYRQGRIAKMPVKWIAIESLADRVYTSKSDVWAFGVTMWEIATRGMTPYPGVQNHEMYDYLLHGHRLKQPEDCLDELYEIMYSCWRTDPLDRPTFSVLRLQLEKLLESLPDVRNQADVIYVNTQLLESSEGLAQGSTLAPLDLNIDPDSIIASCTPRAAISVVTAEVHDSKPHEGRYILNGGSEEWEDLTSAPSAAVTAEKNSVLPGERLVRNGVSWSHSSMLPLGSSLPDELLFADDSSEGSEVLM

With `COc1cc2nccc(Oc3ccc(NC(=O)c4c(C)n(CC(F)F)cc(-c5ccc(F)cc5C)c4=O)cc3F)c2nc1OC` [Compound 786, 1-(2,2-difluoroethyl)-N-[4-[(6,7-dimethoxy-1,5-naphthyridin-4-yl)oxy]-3-fluorophenyl]-5-(4-fluoro-2-methylphenyl)-2-methyl-4-oxopyridine-3-carboxamide], the pIC50 in assay [1] (setting [4]), in assay [2] (setting [5]) and in assay [3] (setting [6]) was over 7.00 in each case.

For the molecule `COc1cc2nccc(Oc3ccc(NC(=O)c4c(C)n(CCF)cc(-c5ccc(F)cc5C)c4=O)cc3F)c2nc1OC` [Compound 756, N-[4-[(6,7-dimethoxy-1,5-naphthyridin-4-yl)oxy]-3-fluorophenyl]-1-(2-fluoroethyl)-5-(4-fluoro-2-methylphenyl)-2-methyl-4-oxopyridine-3-carboxamide], the pIC50 in assay [1] (setting [4]), in assay [2] (setting [5]) and in assay [3] (setting [6]) was over 7.00 each time.

Turning to `COc1cc2nccc(Oc3ccc(NC(=O)c4c(C)n(CC(F)(F)F)cc(-c5ccc(F)cc5)c4=O)cc3F)c2nc1OC` [Compound 727, N-[4-[(6,7-dimethoxy-1,5-naphthyridin-4-yl)oxy]-3-fluorophenyl]-5-(4-fluorophenyl)-2-methyl-4-oxo-1-(2,2,2-trifluoroethyl)pyridine-3-carboxamide], the pIC50 – broadly, the IC50 on a negative log10 scale, so that one unit is a factor of ten – was over 7.00 in assay [1] (setting [4]), 6.52 to 7.00 in assay [2] (setting [5]) and over 7.00 in assay [3] (setting [6]).

Turning to `COc1cnc2c(Oc3ccc(NC(=O)c4c(C)n(CC(F)F)cc(-c5ccc(F)c(F)c5)c4=O)cc3F)ccnc2c1` [Compound 817, 1-(2,2-difluoroethyl)-5-(3,4-difluorophenyl)-N-[3-fluoro-4-[(7-methoxy-1,5-naphthyridin-4-yl)oxy]phenyl]-2-methyl-4-oxopyridine-3-carboxamide], the pIC50 in assay [1] (PC-3 cells) was over 7.00; in assay [2] (HUVEC cells), under 6.52; in assay [3] (transfected 293A cells), over 7.00.

As for `COc1cnc2c(Oc3ccc(NC(=O)c4c(C)ncc(-c5ccc(F)cc5C)c4O)cc3F)ccnc2c1` [Compound 719, N-[3-fluoro-4-[(7-methoxy-1,5-naphthyridin-4-yl)oxy]phenyl]-5-(4-fluoro-2-methylphenyl)-4-hydroxy-2-methylpyridine-3-carboxamide], the pIC50 in assay [1] (setting [4]), in assay [2] (setting [5]) and in assay [3] (setting [6]) was over 7.00 in each case.

As for `COCc1nc(C)c(-c2ccc(F)cc2F)c(O)c1C(=O)Nc1cc(F)c(Oc2ccnc3cc(OC)c(OC)nc23)cc1F` [Compound 778, 5-(2,4-difluorophenyl)-N-[4-[(6,7-dimethoxy-1,5-naphthyridin-4-yl)oxy]-2,5-difluorophenyl]-4-hydroxy-2-(methoxymethyl)-6-methylpyridine-3-carboxamide], the pIC50 in assay [1] (setting [4]), in assay [2] (setting [5]) and in assay [3] (setting [6]) was over 7.00 in each case.

Consider `CCOCc1nc(C)c(-c2ccc(F)cc2C)c(O)c1C(=O)Nc1ccc(Oc2ccnc3cc(OC)c(OC)nc23)cc1` [Compound 780, N-[4-[(6,7-dimethoxy-1,5-naphthyridin-4-yl)oxy]phenyl]-2-(ethoxymethyl)-5-(4-fluoro-2-methylphenyl)-4-hydroxy-6-methylpyridine-3-carboxamide], for which the pIC50 in assay [1] (setting [4]) was over 7.00; in assay [2] (setting [5]), 6.52 to 7.00; in assay [3] (setting [6]), over 7.00.

As for `COc1cc2nccc(Oc3ccc(NC(=O)c4c(C)n(C)c(C)c(-c5ccc(F)cc5C)c4=O)cc3)c2nc1OC` [Compound 791, N-[4-[(6,7-dimethoxy-1,5-naphthyridin-4-yl)oxy]phenyl]-5-(4-fluoro-2-methylphenyl)-1,2,6-trimethyl-4-oxopyridine-3-carboxamide], the pIC50 in assay [1] (setting [4]) is over 7.00; in assay [2] (setting [5]), under 6.52; in assay [3] (setting [6]), over 7.00.

Turning to `COc1cc2nccc(Oc3ccc(NC(=O)c4c(C)nc(C)c(-c5ccc(F)c(F)c5)c4O)cc3F)c2nc1OC` [Compound 708, 5-(3,4-difluorophenyl)-N-[4-[(6,7-dimethoxy-1,5-naphthyridin-4-yl)oxy]-3-fluorophenyl]-4-hydroxy-2,6-dimethylpyridine-3-carboxamide], the pIC50 in assay [1] (setting [4]), in assay [2] (setting [5]) and in assay [3] (setting [6]) was over 7.00 throughout.
